These results are taken from patent publication US7273848B2, “Apolipoprotein A-I agonists and their use to treat dyslipidemic disorders” (priority 1997, dated 2007).

Non-standard residues stand in square brackets, D forms with d. Residues, ends and D or L forms follow the SMILES beside them. No end group written: not given here. Aib = CC(C)(N)C(=O)O

The target in data set [1] is T1, LCAT (purified from human plasma) (Homo sapiens, UniProt P04180).
T1 construct: from tissue; host or cells: human plasma
T1 sequence (P04180 25-440): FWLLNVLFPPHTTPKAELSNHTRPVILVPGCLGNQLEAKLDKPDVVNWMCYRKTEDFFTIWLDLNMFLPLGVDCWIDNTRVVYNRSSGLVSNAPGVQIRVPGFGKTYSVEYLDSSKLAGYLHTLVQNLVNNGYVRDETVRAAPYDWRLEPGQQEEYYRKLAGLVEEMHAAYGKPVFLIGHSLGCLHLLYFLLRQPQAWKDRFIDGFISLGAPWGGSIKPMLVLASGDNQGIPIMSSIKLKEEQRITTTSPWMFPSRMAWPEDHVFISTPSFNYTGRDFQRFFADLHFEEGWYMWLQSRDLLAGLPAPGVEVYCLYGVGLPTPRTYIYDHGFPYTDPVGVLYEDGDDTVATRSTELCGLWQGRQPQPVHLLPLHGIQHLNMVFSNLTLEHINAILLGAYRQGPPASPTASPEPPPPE
Put plainly: LCAT activation assay. As to conditions: LCAT activation as compared with native human ApoA-I (= 100%), equivalent masses. The format is biochemical. Summed up:
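Substrate SUVs of EPC or POPC with 14C-cholesterol (20:1 molar ratio), in 10 mM Tris, 0.14 M NaCl, 1 mM EDTA, pH 7.4, were preincubated with peptide or equal mass of plasma ApoA-I. Reaction started with human plasma LCAT; activation was measured as cholesterol-to-ester conversion relative to ApoA-I (100%).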

Data set [2] can be described thus: Circular dichroism helicity determination. Format: physicochemical. The conditions noted are these: percent helicity; for He (%) TFE: 5 μM peptide, 90% vol TFE; for He (%) TFE / He (%) SUVs: 37° C.; for He (%) free: unbound peptide 5 μM in 5 mM phosphate buffer, pH 7.4, 37° C.; for He (%) SUVs: peptide-SUV complexes (20:1 EPC:Chol., Ri=30 and Ri=50); for He (%) mics: peptide-micelle complexes, Ri=100, 37° C. In outline: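 Far-UV CD (190–260 nm) at 37° C on 5 μM peptide in 5 mM phosphate pH 7.4, free, with EPC:Chol 20:1 SUVs (Ri 30 or 50), lysophosphatidylcholine micelles (Ri 100) or 90% TFE. Spectra converted to molar ellipticity per residue; helicity from 222 nm ellipticity or CONTIN fitting to reference spectra, ±5%.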

For `CC(C)C[C@H](NC(=O)[C@H](C)NC(=O)[C@H](CCC(=O)O)NC(=O)[C@H](CC(C)C)NC(=O)C(C)(C)NC(=O)[C@H](CCC(=O)O)NC(=O)[C@H](CC(N)=O)NC(=O)[C@H](CC(C)C)NC(=O)[C@H](CC(C)C)NC(=O)[C@H](CCC(=O)O)NC(=O)[C@H](Cc1c[nH]c2ccccc12)NC(=O)[C@H](Cc1ccccc1)NC(=O)[C@H](CC(C)C)NC(=O)[C@H](CC(=O)O)NC(=O)[C@H](CC(C)C)NC(=O)[C@@H](NC(=O)[C@@H]1CCCN1)C(C)C)C(=O)N[C@@H](CCCCN)C(=O)N[C@@H](CCC(N)=O)C(=O)N[C@@H](CCCCN)C(=O)N[C@@H](CC(C)C)C(=O)N[C@@H](CCCCN)C(=O)O` [compound 51, PVLDLFWELLNEXLEALKQKLK] (H-PVLDLFWELLNE[Aib]LEALKQKLK-OH), in data set [1], the “ACTIVITY (%) LCAT” value was determined as 20%. In data set [2], the “He (%) TFE” value turned out to be 73%, the “He (%) free” value stood at 63%, the “He (%) SUVs” value was 81% and the “He (%) mics” value is recorded as 82%.
Regarding GVLELFENLLERLLDALQKKLK [peptide 145], the “ACTIVITY (%) LCAT” value in data set [1] stood at 100%. In data set [2], the “He (%) TFE” value is listed as 58%, the “He (%) free” value worked out at 55% and the “He (%) mics” value turned out to be 51%.
As to “PVLDEFREKLNERLEALKQKLK [peptide 109, reference compound]”, the “ACTIVITY (%) LCAT” value in data set [1] was determined as 0%. Moreover, in data set [2], the “He (%) TFE” value came to 58%, the “He (%) free” value was determined as 19%, the “He (%) SUVs” value was 23% and the “He (%) mics” value turned out to be 45%.
For PAADAFREAANEAAEAAKQKAK [compound 105] the same measures were 1%, 65%, 29%, 32% and 28%.
For “EWLEAFYKKVLEKLKELF [peptide 246, reference compound]”, the “ACTIVITY (%) LCAT” value in data set [1] was found to be 4%. Also, the “ACTIVITY (%) LCAT” value in data set [1] (listed as 18AM4) is listed as “less than 4%”. Besides, in data set [2], the “He (%) free” value came to 18%, the “He (%) SUVs” value is listed as 47% and the “He (%) mics” value was 44%.
`CC(C)C[C@@H](NC(=O)[C@@H](C)NC(=O)[C@@H](CCC(=O)O)NC(=O)[C@@H](CC(C)C)NC(=O)[C@@H](CC(C)C)NC(=O)[C@@H](CCC(=O)O)NC(=O)[C@@H](CCC(N)=O)NC(=O)[C@@H](CC(C)C)NC(=O)[C@@H](CC(C)C)NC(=O)[C@@H](CCC(=O)O)NC(=O)[C@@H](CCCCN)NC(=O)[C@@H](CC(C)C)NC(=O)[C@@H](CC(C)C)NC(=O)[C@@H](CCC(=O)O)NC(=O)[C@@H](CC(C)C)NC(=O)[C@@H](CC(C)C)NC(=O)[C@H]1CCCN1)C(=O)N[C@H](CCCCN)C(=O)N[C@H](CCC(N)=O)C(=O)N[C@H](CCCCN)C(=O)N[C@H](CC(C)C)C(=O)N[C@H](CCCCN)C(=O)O` [compound 87, pllellkellqellealkqklk] (H-[dP][dL][dL][dE][dL][dL][dK][dE][dL][dL][dQ][dE][dL][dL][dE][dA][dL][dK][dQ][dK][dL][dK]-OH): the “ACTIVITY (%) LCAT” value in data set [1] is recorded as 7%. Also, in data set [2], the “He (%) TFE” value stood at 100%, the “He (%) free” value is 100% and the “He (%) mics” value is recorded as 100%.
Turning to PVLDLFRELLNEWLEALKQKLK [compound 54], the “ACTIVITY (%) LCAT” value in data set [1] was 19%. Also, in data set [2], the “He (%) TFE” value came to 78%, the “He (%) free” value turned out to be 76%, the “He (%) SUVs” value came to 84% and the “He (%) mics” value is 71%.
In the same order, the values of PVLDLFRELLNELWEALKQKLK [compound 28] are 40%, 81%, 82%, 90% and 98%.
